≈ marks a conversion by molar mass, not a printed value.
Key:
[1] = test system: NCI-H460; experiment: Cytotoxicity against human NCI-H460 cells assessed as reduction in cell growth incubated for 48 hrs by SRB assay; assay type: functional, cell-based; settings: NCI-H460, 48 h
[2] = test system: SF-268; experiment: Cytotoxicity against human SF-268 cells assessed as reduction in cell growth incubated for 48 hrs by SRB assay; assay type: functional, cell-based; settings: SF-268, 48 h
[3] = test system: HepG2; experiment: Cytotoxicity against human HepG2 cells assessed as reduction in cell growth incubated for 48 hrs by SRB assay; assay type: functional, cell-based; settings: HepG2, 48 h
[4] = test system: MCF7; experiment: Cytotoxicity against human MCF7 cells assessed as reduction in cell growth incubated for 48 hrs by SRB assay; assay type: functional, cell-based; settings: MCF7, 48 h
[5] = test system: P388; experiment: Cytotoxicity against mouse P388 cells assessed as reduction in cell viability; assay type: functional; settings: read-out: ED50 (the source's name)
[6] = test system: P388; experiment: Cytotoxicity against mouse P388 cells; assay type: functional; settings: read-out: ED50 (the source's name)
[7] = test system: A549; experiment: Cytotoxicity against human A549 cells assessed as reduction in cell viability measured for 48 hrs by MTT assay; assay type: functional, cell-based; settings: A549, 48 h
[8] = test system: MOLT-4; experiment: Cytotoxicity against human MOLT-4 cells assessed as reduction in cell viability by MTT assay; assay type: functional, cell-based
[9] = test system: HL-60; experiment: Cytotoxicity against human HL-60 cells assessed as reduction in cell viability by MTT assay; assay type: functional, cell-based
[10] = test system: Bel-7402; experiment: Cytotoxicity against human Bel-7402 cells assessed as reduction in cell viability measured for 48 hrs by MTT assay; assay type: functional, cell-based; settings: Bel-7402, 48 h
[11] = test system: P388; experiment: Cytotoxicity against mouse P388 cells assessed as inhibition of cell growth; assay type: functional, cell-based
[12] = test system: HT-29; experiment: Cytotoxicity against human HT-29 cells assessed as inhibition of cell growth; assay type: functional, cell-based
[13] = test system: SK-MEL-28; experiment: Cytotoxicity against human SK-MEL-28 cells assessed as inhibition of cell growth; assay type: functional, cell-based
[14] = test system: A549; experiment: Cytotoxicity against human A549 cells assessed as inhibition of cell growth; assay type: functional, cell-based

SMILES: CS[C@]1(CO)C(=O)N2[C@H]3C(=CC=C[C@@H]3OC(C)=O)C[C@@]2(SC)C(=O)N1C
- IC50 [1]: 3.4 µM
- IC50 [2]: 34 µM
- IC50 [3]: 7 µM
- IC50 [4]: 3.1 µM

SMILES: CN1C(=O)[C@]23Cc4ccccc4N2C(=O)[C@@]1(CO)SS3
- IC50 [1]: 1.27 µM
- IC50 [2]: 1.35 µM
- IC50 [3]: 1.52 µM
- IC50 [4]: 0.68 µM

SMILES: CC(C)[C@]12SS[C@]3(C(=O)N1C)[C@@H](O)C1(C45c6ccccc6N[C@H]4N4C(=O)[C@@]6(CO)SS[C@]4(C(=O)N6C)[C@H]5O)c4ccccc4N[C@@H]1N3C2=O (some centres undefined)
- EC50 [5]: 1.75 ng/mL (≈ 2.36 nM)

SMILES: CC(C)[C@]12SSSS[C@]3(C(=O)N1C)[C@@H](O)C1(C45c6ccccc6N[C@H]4N4C(=O)[C@@]6(C(C)C)SS[C@]4(C(=O)N6C)[C@H]5O)c4ccccc4N[C@@H]1N3C2=O (some centres undefined)
- EC50 [6]: 2.1 ng/mL (≈ 2.57 nM)

SMILES: COc1ccc2c(c1)N(CC=C(C)C)C(=O)[C@]21[C@H](C=C(C)C)N2C(=O)[C@@H]3CCCN3C(=O)[C@]2(O)[C@H]1O
- IC50 [7]: 35.9 µM
- IC50 [8]: 25.7 µM
- IC50 [9]: 43.5 µM
- IC50 [10]: 68.8 µM

SMILES: COc1c(C)cc2c(c1O)[C@@H]1N[C@H](C2)[C@H](O)N2[C@H]1[C@@H]1SC[C@H](N)C(=O)OC[C@H]2c2c(O)c(OC)c(C)c(OC(C)=O)c21
- IC50 [11]: 10 µM
- IC50 [12]: 10 ng/mL (≈ 16.6 nM)
- IC50 [13]: 5 ng/mL (≈ 8.31 nM)
- IC50 [14]: 10 ng/mL (≈ 16.6 nM)

SMILES: CS[C@]1(C(C)C)C(=O)N2C(=CC3(C45c6ccccc6N[C@H]4N4C(=O)[C@H](CO)N(C)C(=O)[C@@]4(O)[C@H]5O)c4ccccc4N[C@H]23)C(=O)N1C (some centres undefined)
- EC50 [6]: 15200 ng/mL (≈ 23000 nM)

SMILES: CO[C@@]12C(=O)N(C)[C@@H](CO)C(=O)N1[C@@H]1Nc3ccccc3C1(C13c4ccccc4N[C@@H]1N1C(=O)[C@@]4(C(C)C)SS[C@]1(C(=O)N4C)[C@@H]3O)[C@H]2O (some centres undefined)
- EC50 [6]: 180 ng/mL (≈ 254 nM)

SMILES: CSS[C@@]1(C(C)C)C(=O)N2C(=CC3(C45c6ccccc6N[C@H]4N4C(=O)[C@H](CO)N(C)C(=O)[C@@]4(O)[C@H]5O)c4ccccc4N[C@H]23)C(=O)N1C (some centres undefined)
- EC50 [6]: 1100 ng/mL (≈ 1590 nM)

SMILES: COc1ccc2c3c(n(CC=C(C)C)c2c1)[C@H](C=C(C)C)N1C(=O)[C@@H]2CCCN2C(=O)[C@]1(O)C3=O
- IC50 [7]: 16.9 µM
- IC50 [8]: 25.7 µM
- IC50 [9]: 1.9 µM
- IC50 [10]: 25.6 µM

SMILES: COc1ccc2c(c1)N(/C=C/C(C)(C)OO)C(=O)[C@]21[C@H](C=C(C)C)N2C(=O)[C@@H]3CCCN3C(=O)[C@]2(O)[C@H]1O
- IC50 [7]: 3.1 µM
- IC50 [8]: 3.1 µM
- IC50 [9]: 2.3 µM
- IC50 [10]: 98.4 µM

SMILES: CC(C)[C@]12SS[C@]3(C(=O)N1C)[C@@H](O)C1(C45c6ccccc6N[C@H]4N4C(=O)[C@@]6(C(C)C)SS[C@]4(C(=O)N6C)[C@H]5O)c4ccccc4N[C@@H]1N3C2=O (some centres undefined)
- EC50 [6]: 3.8 ng/mL (≈ 5.05 nM)

SMILES: COc1cc2c(cc1O)CCN[C@@]21CS[C@@H]2c3c(OC(C)=O)c(C)c4c(c3[C@H](COC1=O)N1[C@@H]2[C@@H]2N[C@@H](Cc3cc(C)c(OC)c(O)c32)[C@@H]1O)OCO4
- IC50 [11]: 0.2 µM
- IC50 [12]: 0.5 ng/mL (≈ 0.669 nM)
- IC50 [13]: 5 ng/mL (≈ 6.69 nM)
- IC50 [14]: 0.2 ng/mL (≈ 0.267 nM)

SMILES: CC(C)[C@]12SS[C@]3(C(=O)N1C)[C@@H](O)C1(C45c6ccccc6N[C@H]4N4C(=O)[C@@]6(CO)SSS[C@]4(C(=O)N6C)[C@H]5O)c4ccccc4N[C@@H]1N3C2=O (some centres undefined)
- EC50 [5]: 2.4 ng/mL (≈ 3.1 nM)

SMILES: CC(C)[C@]12SSS[C@]3(C(=O)N1C)[C@@H](O)C1(C45c6ccccc6N[C@H]4N4C(=O)[C@@]6(CO)SSSS[C@]4(C(=O)N6C)[C@H]5O)c4ccccc4N[C@@H]1N3C2=O (some centres undefined)
- EC50 [6]: 4.6 ng/mL (≈ 5.5 nM)

SMILES: CO[C@@]12C(=O)N(C)[C@@H](CO)C(=O)N1[C@@H]1Nc3ccccc3C1(C13c4ccccc4N[C@@H]1N1C(=O)[C@@]4(C(C)C)SSSS[C@]1(C(=O)N4C)[C@H]3O)[C@@H]2O (some centres undefined)
- EC50 [6]: 1050 ng/mL (≈ 1360 nM)

SMILES: CO[C@@]12C(=O)N(C)[C@@H](CO)C(=O)N1[C@@H]1Nc3ccccc3C1(C13c4ccccc4N[C@@H]1N1C(=O)[C@@]4(C(C)C)SS[C@]1(C(=O)N4C)[C@H]3O)[C@@H]2O (some centres undefined)
- EC50 [6]: 1400 ng/mL (≈ 1980 nM)

SMILES: C=C(C)[C@H](O)Cn1c2c(c3ccc(OC)cc31)[C@H](O)[C@@]1(O)C(=O)N3CCC[C@H]3C(=O)N1[C@H]2C=C(C)C
- IC50 [7]: 11.6 µM
- IC50 [8]: 11 µM
- IC50 [9]: 5.4 µM
- IC50 [10]: 10.8 µM

SMILES: CC(C)[C@]12SSS[C@]3(C(=O)N1C)[C@@H](O)C1(c4c[nH]c5ccccc45)c4ccccc4N[C@@H]1N3C2=O (some centres undefined)
- EC50 [5]: 46 ng/mL (≈ 87.7 nM)

SMILES: CS[C@@]1(C(C)C)C(=O)N2C(=CC3(C45c6ccccc6N[C@H]4N4C(=O)[C@H](CO)N(C)C(=O)[C@@]4(O)[C@H]5O)c4ccccc4N[C@H]23)C(=O)N1C (some centres undefined)
- EC50 [6]: 14800 ng/mL (≈ 22400 nM)

SMILES: CC(C)[C@]12SSS[C@]3(C(=O)N1C)[C@@H](O)C1(C45c6ccccc6N[C@H]4N4C(=O)[C@@]6(CO)SSS[C@]4(C(=O)N6C)[C@H]5O)c4ccccc4N[C@@H]1N3C2=O (some centres undefined)
- EC50 [6]: 4.3 ng/mL (≈ 5.34 nM)

SMILES: CS[C@]1(CO)C(=O)n2c(cc3ccccc32)C(=O)N1C
- IC50 [1]: > 100 µM
- IC50 [2]: 35.7 µM
- IC50 [3]: 28.9 µM
- IC50 [4]: 29.5 µM

SMILES: CC(C)[C@]12SS[C@]3(C(=O)N1C)[C@@H](O)C1(c4c[nH]c5ccccc45)c4ccccc4N[C@@H]1N3C2=O (some centres undefined)
- EC50 [5]: 86 ng/mL (≈ 175 nM)

SMILES: C=C(C)[C@@H](O)Cn1c2c(c3ccc(OC)cc31)[C@H](O)[C@@]1(O)C(=O)N3CCC[C@H]3C(=O)N1[C@H]2C=C(C)C
- IC50 [7]: 11 µM
- IC50 [8]: 11 µM
- IC50 [9]: 3.4 µM
- IC50 [10]: 7 µM

SMILES: CSS[C@]1(C(C)C)C(=O)N2C(=CC3(C45c6ccccc6N[C@H]4N4C(=O)[C@H](CO)N(C)C(=O)[C@@]4(O)[C@H]5O)c4ccccc4N[C@H]23)C(=O)N1C (some centres undefined)
- EC50 [6]: 100 ng/mL (≈ 144 nM)

SMILES: COc1ccc2c(c1)N(CC=C(C)C)C(=O)[C@]21[C@H](C=C(C)C)N2C(=O)[C@]3(O)CCCN3C(=O)[C@]2(O)[C@H]1O
- IC50 [7]: 35.5 µM
- IC50 [8]: 25.7 µM
- IC50 [9]: 45 µM
- IC50 [10]: 17.5 µM

SMILES: CC(C)[C@]12SSSS[C@]3(C(=O)N1C)[C@@H](O)C1(c4c[nH]c5ccccc45)c4ccccc4N[C@@H]1N3C2=O (some centres undefined)
- EC50 [5]: 56 ng/mL (≈ 101 nM)

SMILES: CC(C)[C@]12SSS[C@]3(C(=O)N1C)[C@@H](O)C1(C45c6ccccc6N[C@H]4N4C(=O)[C@@]6(C(C)C)SS[C@]4(C(=O)N6C)[C@H]5O)c4ccccc4N[C@@H]1N3C2=O (some centres undefined)
- EC50 [6]: 2.2 ng/mL (≈ 2.8 nM)

SMILES: CC(C)[C@]12SS[C@]3(C(=O)N1C)[C@@H](O)C1(C45c6ccccc6N[C@H]4N4C(=O)[C@@]6(CO)SSSS[C@]4(C(=O)N6C)[C@H]5O)c4ccccc4N[C@@H]1N3C2=O (some centres undefined)
- EC50 [5]: 1.85 ng/mL (≈ 2.3 nM)

SMILES: COc1c(C)cc2c(c1O)[C@H]1[C@@H]3[C@@H]4SC[C@H](N)C(=O)OC[C@@H](c5c(O)c(OC)c(C)c(OC(C)=O)c54)N3[C@@H](O)[C@@H](C2)N1C
- IC50 [11]: 2 µM
- IC50 [12]: 2 ng/mL (≈ 3.25 nM)
- IC50 [13]: 2 ng/mL (≈ 3.25 nM)
- IC50 [14]: 2 ng/mL (≈ 3.25 nM)

SMILES: CC(C)[C@]12SSS[C@]3(C(=O)N1C)[C@@H](O)C1(C45c6ccccc6N[C@H]4N4C(=O)[C@@]6(CO)SS[C@]4(C(=O)N6C)[C@H]5O)c4ccccc4N[C@@H]1N3C2=O (some centres undefined)
- EC50 [6]: 4.4 ng/mL (≈ 5.69 nM)

SMILES: CO[C@@]12C(=O)N(C)[C@@H](C(C)C)C(=O)N1[C@@H]1Nc3ccccc3C1(C13c4ccccc4N[C@@H]1N1C(=O)[C@@]4(C(C)C)SSS[C@]1(C(=O)N4C)[C@@H]3O)[C@H]2O (some centres undefined)
- EC50 [6]: 190 ng/mL (≈ 252 nM)

SMILES: CC(C)[C@]12SSSS[C@]3(C(=O)N1C)[C@@H](O)C1(C45c6ccccc6N[C@H]4N4C(=O)[C@@]6(CO)SS[C@]4(C(=O)N6C)[C@H]5O)c4ccccc4N[C@@H]1N3C2=O (some centres undefined)
- EC50 [6]: 3 ng/mL (≈ 3.73 nM)
